Measured values as given in patent publication US20200331904A1, “3-AMINO-[1,2,4]-TRIAZOLE DERIVATIVES AND THEIR USE FOR CONTROLLING UNDESIRED PLANT GROWTH” (Bayer CropScience Aktiengesellschaft, priority 2017, published 2020).

How the values were obtained:
Type in all cases: in vivo
Matricaria inodora = assay: Pre-emergence herbicidal efficacy, MATIN
How it was run: (§1)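 Visual percent activity relative to untreated plants (0% = like control, 100% = dead), scored about 3 weeks after treatment under greenhouse conditions.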

Viola tricolor [1] = assay: Post-emergence herbicidal efficacy, VIOTR
Source text: (§2) ABUTH: Abutilon theophrasti ALOMY: Alopecurus myosuroides AMARE: Amaranthus retroflexus AVEFA: Avena fatua CYPES: Cyperus esculentus ECHCG: Echinochloa crus-galli LOLMU: Lolium multiflorum MATIN: Matricaria inodora PHBPU: Ipomoea purpurea POLCO: Polygonum convolvulus SETVI: Setaria viridis STEME: Stellaria media VERPE: Veronica persica VTOTR: Viola tricolor
(§3) C.2 Post-Emergence Herbicidal Action and Crop Plant Compatibility
(§4) Seeds of monocotyledonous and dicotyledonous weeds and crop plants are placed in sandy loam in plastic or organic planting pots, covered with soil and cultivated in a greenhouse under controlled growth conditions. 2 to 3 weeks after sowing, the test plants are treated at the one-leaf stage. The compounds of the invention, formulated in the form of wettable powders (WP) or as emulsion concentrates (EC), are then sprayed onto the green parts of the plants as aqueous suspension or emulsion with addition of 0.5% additive at a water application rate of […] (converted). After the test plants had been kept in the greenhouse under optimum growth conditions for about 3 weeks, the activity of the preparations is rated visually in comparison to untreated controls. For example, 100% activity=the plants have died, 0% activity=like control plants.

Viola tricolor [2] = assay: Pre-emergence herbicidal efficacy, VIOTR
How it was run: as §1

Stellaria media = assay: Pre-emergence herbicidal efficacy, STEME
How it was run: as §1

Veronica persica [3] = assay: Post-emergence herbicidal efficacy, VERPE
Source text: as §2, §3, §4

Veronica persica [4] = assay: Pre-emergence herbicidal efficacy, VERPE; details: scored visually after about 3 weeks vs untreated controls
How it was run: as §1

Lolium rigidum = assay: Pre-emergence herbicidal efficacy, LOLRI; details: Table B1, application rate 320 g/ha, scored visually after about 3 weeks vs untreated controls
Source text: C.1 Pre-Emergence Herbicidal Action and Crop Plant Compatibility Seeds of monocotyledonous and dicotyledonous weed plants and crop plants are placed in plastic or organic planting pots and covered with soil. The compounds of the invention, formulated in the form of wettable powders (WP) or as emulsion concentrates (EC), are then applied onto the surface of the covering soil as aqueous suspension or emulsion with addition of 0.5% additive at a water application rate of […] (converted). After the treatment, the pots are placed in a greenhouse and kept under good growth conditions for the trial plants. After about 3 weeks, the effect of the preparations is scored visually in comparison with untreated controls as percentages. For example, 100% activity=the plants have died, 0% activity=like control plants. […] Here, for example, compound Nos. I-214 and I-196, when applied pre-emergence, have very good activity (80% to 100% herbicidal activity) against harmful plants such as Abutilon theophrasti, Amaranthus retroflexus, Echinochloa crus-galli, Lolium rigidum, Matricaria inodora, Polygonum convolvulus, Setaria viridis, Stellaria media, Veronica persica and Viola tricolor at an application rate of 0.32 kg of active substance or less per hectare. At the same time, some of the compounds according to the invention leave Gramineae crops such as barley, wheat, rye, millet/sorghum, corn, rice or sugar cane virtually undamaged when applied pre-emergence, even at high active compound dosages. In addition, some substances are also harmless to dicotyledonous crops such as soya, cotton, oilseed rape or sugar beet.

Setaria viridis = assay: Pre-emergence herbicidal efficacy, SETVI; details: Table B1, application rate 320 g/ha, scored visually after about 3 weeks vs untreated controls
Source text: (§5) C.1 Pre-Emergence Herbicidal Action and Crop Plant Compatibility
(§6) Seeds of monocotyledonous and dicotyledonous weed plants and crop plants are placed in plastic or organic planting pots and covered with soil. The compounds of the invention, formulated in the form of wettable powders (WP) or as emulsion concentrates (EC), are then applied onto the surface of the covering soil as aqueous suspension or emulsion with addition of 0.5% additive at a water application rate of […] (converted). After the treatment, the pots are placed in a greenhouse and kept under good growth conditions for the trial plants. After about 3 weeks, the effect of the preparations is scored visually in comparison with untreated controls as percentages. For example, 100% activity=the plants have died, 0% activity=like control plants.
as §2

Polygonum convolvulus = assay: Pre-emergence herbicidal efficacy, POLCO; details: scored visually after about 3 weeks vs untreated controls
How it was run: as §1

Amaranthus retroflexus = assay: Pre-emergence herbicidal efficacy, AMARE; details: scored visually after about 3 weeks vs untreated controls
How it was run: as §1

Echinochloa crus-galli = assay: Pre-emergence herbicidal efficacy, ECHCG; details: Table B1, application rate 320 g/ha, scored visually after about 3 weeks vs untreated controls
Source text: as §5, §6, §2

Abutilon theophrasti = assay: Pre-emergence herbicidal efficacy, ABUTH; details: Table B1, application rate 320 g/ha, scored visually after about 3 weeks vs untreated controls
Source text: as §5, §6, §2

[5] = application rate 320 g/ha, scored visually after about 3 weeks
[6] = application rate 320 g/ha, rated visually after about 3 weeks (Table B7)
[7] = application rate 1280 g/ha, rated visually after about 3 weeks
[8] = Table B1, application rate 320 g/ha, scored visually after about 3 weeks vs untreated controls
[9] = Table B1, application rate 320 g/ha
[10] = Table B2, application rate 320 g/ha, scored visually after about 3 weeks vs untreated controls
[11] = Table B2, application rate 320 g/ha

SMILES | Herbicidal efficacy against MATIN (Matricaria inodora; [5]) | Herbicidal efficacy against VIOTR (Viola tricolor [1]; [6]) | Herbicidal efficacy against VIOTR (Viola tricolor [1]; [7]) | Herbicidal efficacy against VIOTR (Viola tricolor [2]; [5]) | Herbicidal efficacy against STEME (Stellaria media; [5]) | Herbicidal efficacy against VERPE (Veronica persica [3]; [6]) | Herbicidal efficacy against VERPE (Veronica persica [3]; [7]) | Herbicidal efficacy against MATIN (Matricaria inodora; [8]) | Herbicidal efficacy against VERPE (Veronica persica [4]; [9]) | Herbicidal efficacy against SETVI (Setaria viridis) | Herbicidal efficacy against VIOTR (Viola tricolor [2]; [8]) | Herbicidal efficacy against STEME (Stellaria media; [8]) | Herbicidal efficacy against POLCO (Polygonum convolvulus; [9]) | Herbicidal efficacy against AMARE (Amaranthus retroflexus; [9]) | Herbicidal efficacy against ECHCG (Echinochloa crus-galli) | Herbicidal efficacy against ABUTH (Abutilon theophrasti) | further results
O=S(=O)(C1CC1)N1CCn2nc(NC3CCCc4ccccc43)nc2C1 (stereo not drawn) [Example I-087] | 100% | 80% | 80% | 100% | 100% | 80% | 90% |  |  |  |  |  |  |  |  |  | 
Cc1ccc2c(c1)[C@H](Nc1nc3n(n1)CCN(S(=O)(=O)Cc1ccccc1)C3)[C@@H](C)C2 [Example I-194] | 90% | 80% |  | 100% | 100% | 100% |  |  |  |  |  |  |  |  |  |  | 
CC(=O)N1CCn2nc(N[C@@H]3CCc4ccc(C)cc43)nc2C1 [Example I-173] |  | 80% |  |  |  | 90% |  | 100% | 100% | 100% | 100% | 100% | 100% | 100% | 100% | 100% | Herbicidal efficacy against LOLRI (Lolium rigidum): 100%
Cc1ccc2c(c1)C(Nc1nc3n(n1)CCCN3S(=O)(=O)C1CC1)CCC2 (stereo not drawn) [Example I-327] | 100% | 80% |  | 100% | 100% | 90% |  |  |  |  |  |  |  |  |  |  | Herbicidal efficacy against MATIN (Matricaria inodora; [10]): 100%; Herbicidal efficacy against VERPE (Veronica persica [4]; [11]): 100%; Herbicidal efficacy against VIOTR (Viola tricolor [2]; [10]): 100%; Herbicidal efficacy against STEME (Stellaria media; [10]): 100%; Herbicidal efficacy against AMARE (Amaranthus retroflexus; [11]): 100%
Fc1cccc2c1CCC[C@H]2Nc1nc2n(n1)CCCCS2 [Example I-213] |  | 90% |  |  |  | 90% |  | 100% | 100% | 100% | 100% | 100% | 100% | 100% | 100% | 100% | Herbicidal efficacy against LOLRI (Lolium rigidum): 100%
Cc1ccc2c(c1)[C@H](Nc1nc3n(n1)CCN(S(=O)(=O)c1ccccc1Cl)C3)[C@@H](C)C2 [Example I-195] | 90% | 80% | 90% | 100% | 100% | 80% | 90% |  |  |  |  |  |  |  |  |  | 
Cc1ccc2c(c1)[C@H](Nc1nc3n(n1)CCN(S(=O)(=O)Cc1ccccc1)C3)CCC2 [Example I-202] | 90% | 80% |  | 100% | 100% | 80% |  |  |  |  |  |  |  |  |  |  | 
[O-][S+]1CCCCn2nc(NC3CCOc4ccccc43)nc21 (stereo not drawn) [Example I-247] | 100% |  | 80% | 100% | 100% |  | 80% |  |  |  |  |  |  |  |  |  | 
Cc1ccc2c(c1)[C@H](Nc1nc3n(n1)CCN(S(C)(=O)=O)C3)CCC2 [Example I-198] |  | 80% |  |  |  | 90% |  | 100% | 100% | 90% | 100% | 100% | 100% | 100% | 90% | 100% | Herbicidal efficacy against LOLRI (Lolium rigidum): 100%
Cc1ccc2c(c1)[C@H](Nc1nc3n(n1)CCN(S(=O)(=O)C1CC1)C3)CCC2 [Example I-200] |  | 80% |  |  |  | 100% |  | 100% | 100% | 100% | 100% | 100% | 100% | 100% | 100% | 100% | Herbicidal efficacy against LOLRI (Lolium rigidum): 100%
CC(=O)N1CCn2nc(NC3c4cc(C)ccc4CC3C)nc2C1 (stereo not drawn) [Example I-165] |  | 80% |  |  |  | 90% |  | 100% | 100% | 100% | 100% | 100% | 100% | 100% | 100% | 100% | Herbicidal efficacy against LOLRI (Lolium rigidum): 100%
O=C1CCn2nc(NC3CCOc4ccccc43)nc2N1Cc1cccc(C(F)(F)F)c1 (stereo not drawn) [Example I-273] | 80% |  | 90% | 100% | 100% |  | 100% |  |  |  |  |  |  |  |  |  | 
O=C1CCn2nc(NC3CCc4ccccc43)nc2N1CC1CC1 (stereo not drawn) [Example I-219] | 100% |  | 80% | 100% | 100% |  | 90% |  |  |  |  |  |  |  |  |  | 
CC(=O)N1CCn2nc(NC3CCOc4ccccc43)nc2C1 (stereo not drawn) [Example I-068] | 100% |  | 80% | 100% | 100% |  | 90% |  |  |  |  |  |  |  |  |  | 
Cc1ccc2c(c1)C(Nc1nc3n(n1)CCN(C(=O)c1cccc(Cl)c1)C3)C(C)C2 (stereo not drawn) [Example I-170] | 90% | 80% |  | 100% | 100% | 90% |  |  |  |  |  |  |  |  |  |  | 
[O-][S+]1CCCCn2nc(NC3CCCc4ccccc43)nc21 (stereo not drawn) [Example I-249] |  |  | 80% |  |  |  | 80% | 100% | 100% | 100% | 100% | 100% | 100% | 100% | 100% | 100% | 
Cc1ccc2c(c1)[C@H](Nc1nc3n(n1)CCN(S(=O)(=O)C1CC1)C3)[C@@H](C)C2 [Example I-192] |  | 80% |  |  |  | 80% |  |  |  |  |  |  |  |  |  |  | Herbicidal efficacy against MATIN (Matricaria inodora; [10]): 100%; Herbicidal efficacy against VERPE (Veronica persica [4]; [11]): 100%; Herbicidal efficacy against VIOTR (Viola tricolor [2]; [10]): 100%; Herbicidal efficacy against STEME (Stellaria media; [10]): 100%; Herbicidal efficacy against POLCO (Polygonum convolvulus; [11]): 100%; Herbicidal efficacy against AMARE (Amaranthus retroflexus; [11]): 100%
